Legend:
[1] = Metabolic stability assay, CD-1 mouse microsomes; type: in vitro ADME; settings: CD-1, mouse, microsomes; for Metabolic Stability T½ [min] mouse / Metabolic Stability 60 min mouse [% remain.]: both, 10 µM; for Metabolic Stability 60 min mouse [% remain.]: 1 h; for half-life at 10 µM: both sexes
[2] = Plasma stability assay, rat plasma (values in parentheses); type: in vitro ADME; settings: value in parentheses
[3] = Metabolic stability assay, human microsomes; type: in vitro ADME; settings: human, microsomes; for Metabolic Stability T½ [min] hum / Metabolic Stability 60 min hum [% remain.]: both, 10 µM; for Metabolic Stability 60 min hum [% remain.]: 1 h; for half-life at 10 µM: both sexes
[4] = Metabolic stability assay, rat microsomes (values in parentheses); type: in vitro ADME; settings: value in parentheses
[5] = in vitro; type: in vitro ADME, human; settings: human, plasma, 10 µM; for Plasma Stability 240 min hum [% remain.]: 4 h
[6] = in vitro; type: in vitro ADME, mouse; settings: both, CD-1, mouse, plasma, 10 µM; for Plasma Stability 240 min mouse [% remain.]: 4 h
[7] = target: T1, Motilin Receptor (Homo sapiens, UniProt O43193); assay: Ca2+ assay (FLIPR) for the GPCR motilin receptor, agonist and antagonist mode; type: cell-based; settings: antagonist mode
T1 construct: host or cells: Ca2+ optimized hematopoietic cell lines (rat)
Description: Ca^2+ Assays for the GPCRs Motilin Receptor, Prostaglandin F (FP) Receptor, 5-hydroxytryptamine 2B (5-HT2B) Receptor, and Purinoreceptor P2Y1
Assays were performed using on a FLIPR^TETRA fluorometric imaging plate reader (Molecular Devices) with ScreenWorks Version 2 (Molecular Devices) as device operating and data analysis software.
Dose dependent agonist and antagonist activities were determined. Percentage activation and percentage inhibition values were determined.
Percentage activation was determined upon initial addition of the sample compounds followed by 10 minutes incubation at 25° C. Following compound incubation, reference agonists were added at EC80 to determine percentage inhibition.
Reference agonists were purchased from reputable commercial vendors and prepared according to each ligand's specifications. All handling of ligands were done to ensure proper control throughout the experiments.
Example compounds were weighed on a Microbalance (Mettler MX5) and dissolved in 100% DMSO to a final concentration of 2.5 mM and subsequently diluted into the assay buffer.
The Assay buffer was a supplemented HBSS (Hank's Balanced Salt Solution). HBSS was supplemented with 20 mM HEPES (4-(2-hydroxyethyl)-piperazin-1-ethansulfonic acid) and 2.5 mM Probenecid (Sigma P8761).
GPCR assays were performed using Ca^2+ optimized hematopoietic cell lines (rat) with cultures never exceeding 90% confluency. […] After seeding, the assay plates were incubated for forty-five (45) minutes at room temperature. After room temperature incubation, the assay plates were incubated at 37° C. 5% CO2 for 24 hours prior to assaying.
All GPCR assays were performed using Fluo-8 Ca^2+ dye. Ca^2+ dye was prepared at 1× dye concentration in GPCR assay buffer. After 24 hours of incubation, cells were washed with GPCR assay buffer, and then Ca^2+-dye (100 μL/well) was added.
The plates were incubated for 90 minutes at 30° C. 5% CO2 prior to FLIPR assay.
Compound plates were prepared to add 50 μL/well during the agonist assay mode. During the FLIPR assay, 50 μL/well from the compound plate was diluted 3-fold into the existing 100 μL/well from the dye loading step. Therefore all compounds were prepared as 3× the final concentration desired in the assay.
After completion of the first single addition assay run, assay plate was removed from the FLIPR Tetra and placed at 25° C. for seven (7) minutes before antagonist assay.
Using the EC80 values determined during the agonist assay, all pre-incubated sample compound and reference antagonist (if applicable) wells were stimulated at the EC80 of the reference agonist. As reference ligands for the first three assays their obvious natural ligands motilin, prostaglandin F2α, and serotonin (5-HT, 5-Hydroxytryptamine) were used; and for the P2Y1 assay 2MeSATP (2-methyl-thio-adeno-sine 5′-triphosphate, i.e. (2R,3S,4R)-5-(6-amino-2-methylsulfanyl-purin-9-yl)-3,4-dihydroxy-tetrahydrofuran-2-yl]methyl (hydroxy-phosphonooxy-phosphoryl)hydrogen phosphate) was applied.
After the addition of the reference agonist fluorescence was monitored for 180 sec using FLIPR Tetra.
Data Analysis and Results:
From the FLIPR data, with negative control correction enabled, the maximum statistic for each well was exported and percentage activation relative to Emax control was calculated.
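For Plasma Stability 240 min mouse [% remain.] in this document: sodium citrate stabilized mouse plasma, parent compound quantified by HPLC/MS/MS relative to its peak area at time zero, run in triplicate.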
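For Plasma Stability T½ [min] mouse in this document: sodium citrate stabilized mouse plasma, parent compound quantified by HPLC/MS/MS relative to its peak area at time zero, run in triplicate.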

T1 sequence (O43193 whole entry, species assumed): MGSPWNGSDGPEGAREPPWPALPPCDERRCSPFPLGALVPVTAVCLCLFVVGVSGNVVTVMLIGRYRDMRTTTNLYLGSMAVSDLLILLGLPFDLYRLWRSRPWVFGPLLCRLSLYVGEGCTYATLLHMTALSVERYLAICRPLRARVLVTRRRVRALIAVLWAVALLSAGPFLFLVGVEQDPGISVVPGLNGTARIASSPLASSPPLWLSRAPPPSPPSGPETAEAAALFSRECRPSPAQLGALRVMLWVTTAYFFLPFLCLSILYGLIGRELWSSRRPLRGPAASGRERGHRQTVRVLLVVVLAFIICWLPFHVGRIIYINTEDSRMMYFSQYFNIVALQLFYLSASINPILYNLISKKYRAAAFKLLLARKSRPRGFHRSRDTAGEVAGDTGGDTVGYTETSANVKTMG

| SMILES | Metabolic Stability T½ [min] mouse [1] | Metabolic Stability 60 min mouse [% remain.] [1] | Plasma Stability 240 min (rat) [% remain.] [2] | Plasma Stability T½ [min] (rat) [2] | Metabolic Stability T½ [min] hum [3] | Metabolic Stability 60 min hum [% remain.] [3] | Metabolic Stability 60 min (rat) [% remain.] [4] | Metabolic Stability T½ [min] (rat) [4] | Plasma Stability T½ [min] hum [5] | Plasma Stability 240 min hum [% remain.] [5] | half-life at 10 µM [3] | half-life at 10 µM [1] | half-life at 10 µM ([4]; read-out: Metabolic Stability T½ [min] (rat)) | Plasma Stability T½ [min] mouse [6] | Plasma Stability 240 min mouse [% remain.] [6] | IC50 [7] | inhibition at 10 µM [7] | half-life at 10 µM ([2]; read-out: Plasma Stability T½ [min] (rat)) |
| --- | --- | --- | --- | --- | --- | --- | --- | --- | --- | --- | --- | --- | --- | --- | --- | --- | --- | --- |
| CN1C(=O)c2cccc(c2)OC[C@@H]2C[C@H](N)CN2C(=O)COC[C@H]1C(=O)NCc1ccc2ccccc2c1 [Ex. 368, (4S,6S,13S)-6-amino-14-methyl-N-(2-naphthylmethyl)-9,15-dioxo-2,11-dioxa-8,14-diazatricyclo[14.3.1.0^4,8]icosa-1(20),16,18-triene-13-carboxamide] | > 60 min | 82 % remain. | (100) % remain. | (240) min | > 60 min | 83 % remain. | 98 % remain. | 60 (60) min | > 240 min | 72 % remain. |  |  |  |  |  |  |  |  |
| COCCNC(=O)[C@@H]1COCC(=O)N2C[C@@H](N)C[C@H]2COc2cccc(c2)C(=O)N1C [Ex. 369, (4S,6S,13S)-6-amino-N-(2-methoxyethyl)-14-methyl-9,15-dioxo-2,11-dioxa-8,14-diazatricyclo[14.3.1.0^4,8]icosa-1(20),16,18-triene-13-carboxamide] | > 60 min | 80 % remain. | (79) % remain. | (240) min | > 60 min | 100 % remain. | 100 % remain. | 60 (60) min | > 240 min | 85 % remain. |  |  |  |  |  |  |  |  |
| CN1C(=O)c2cccc(c2)OC[C@@H]2C[C@H](NC(=O)CCc3ccncc3)CN2C(=O)COC[C@H]1C(=O)NCc1ccc2ccccc2c1 [Ex. 372, (4S,6S,13S)-14-methyl-N-(2-naphthylmethyl)-9,15-dioxo-6-{[3-(4-pyridinyl)propanoyl]amino}-2,11-dioxa-8,14-diazatricyclo[14.3.1.0^4,8]icosa-1(20),16,18-triene-13-carboxamide] | > 60 min | 73 % remain. | (100) % remain. | (240) min |  | 43 % remain. | 72 % remain. | 60 (60) min | > 240 min | 68 % remain. | 0.767 h |  |  |  |  |  |  |  |
| CC(C)CN[C@H]1C[C@H]2COc3cccc(c3)C(=O)N(C)[C@H](C(=O)NCc3ccc4ccccc4c3)COCC(=O)N2C1 [Ex. 373, (4S,6S,13S)-6-(isobutylamino)-14-methyl-N-(2-naphthylmethyl)-9,15-dioxo-2,11-dioxa-8,14-diazatricyclo[14.3.1.0^4,8]icosa-1(20),16,18-triene-13-carboxamide] |  | 39 % remain. | (100) % remain. | (240) min |  | 12 % remain. | 0 % remain. |  | > 240 min | 55 % remain. | 0.2 h | 0.6 h | 7 min |  |  |  |  |  |
| CN1CC(=O)N2C[C@@H](NC(=O)Cc3cccc4ccccc34)C[C@H]2COc2ccc(F)cc2C(=O)N(C)[C@H](C(=O)NCCNC(=N)N)CCC1=O [Ex. 484, (2S,11S,19aS)-N-(2-{[amino(imino)methyl]amino}ethyl)-15-fluoro-7,12-dimethyl-2-{[2-(1-naphthyl)acetyl]amino}-5,8,13-trioxo-2,3,6,7,8,9,10,11,12,13,19,19a-dodecahydro-1H,5H-pyrrolo[2,1-c] [1,4,7,12] benzoxatriazacyclopentadecine-11-carboxamide] | > 60 min | 100 % remain. |  |  |  | 11 % remain. |  |  | > 240 min | 100 % remain. | 0.35 h |  |  | > 240 min | 90 % remain. | 0.2 µM | 99% |  |
| CN1CC(=O)N2CC(NC(=O)Cc3cccc4ccccc34)CC2COc2ccc(F)cc2C(=O)N(C)C(C(=O)NCCNc2ccccn2)CCC1=O [Ex. 485, [2S,11S,19aS)-15-fluoro-7,12-dimethyl-2-{[2-(1-naphthyl)acetyl]amino}-5,8,13-trioxo-N-[2-(2-pyridinylamino)ethyl]-2,3,6,7,8,9,10,11,12,13,19,19a-dodecahydro-1H,5H-pyrrolo[2,1-c] [1,4,7,12]benzoxatriaza-cyclopentadecine-11-carboxamide] |  | 11 % remain. |  |  |  | 8 % remain. |  |  | > 240 min | 100 % remain. | 0.233 h | 0.283 h |  | > 240 min | 99 % remain. | 0.28 µM | 93% |  |
| CN(C)CCNC(=O)[C@@H]1CCC(=O)N(C)CC(=O)N2C[C@@H](NCCc3cccc4ccccc34)C[C@H]2COc2ccc(F)cc2C(=O)N1C [Ex. 486, (2S,11S,19aS)-N-[2-(dimethylamino)ethyl]-15-fluoro-7,12-dimethyl-2-{[2-(1-naphthyl)ethyl]amino}-5,8,13-trioxo-2,3,6,7,8,9,10,11,12,13,19,19a-dodecahydro-1H,5H-pyrrolo[2,1-c] [1,4,7,12]benzoxatri-azacyclopentadecine-11-carboxamide] | > 60 min | 100 % remain. |  |  |  | 13 % remain. |  |  | > 240 min | 100 % remain. | 0.383 h |  |  | > 240 min | 98 % remain. | 0.18 µM | 93% |  |
| CN1CCC[C@H](N2CCNCC2)C(=O)N2C[C@@H](O)C[C@H]2COc2cccc(c2)C1=O [Ex. 580, (4S,6S,10S)-6-hydroxy-14-methyl-10-piperazino-2-oxa-8,14-diazatricyclo[14.3.1.0^4,8]icosa-1(20),16,18-triene-9,15-dione] |  |  | (79) % remain. | (240) min | > 60 min | 100 % remain. |  |  | > 240 min | 70 % remain. |  |  |  |  |  |  |  |  |
| CN1CCN([C@H]2CCCN(C)C(=O)c3cccc(c3)OC[C@@H]3C[C@H](O)CN3C2=O)CC1 [Ex. 581, (4S,6S,10S)-6-hydroxy-14-methyl-10-(4-methylpiperazino)-2-oxa-8,14-diazatricyclo[14.3.1.0^4,8]icosa-1(20),16,18-triene-9,15-dione] | > 60 min | 100 % remain. | (77) % remain. |  | > 60 min | 98 % remain. |  |  | > 240 min | 70 % remain. |  |  |  |  |  |  |  | 210 min |

Reference: patent publication US9512139B2, “Conformationally constrained, fully synthetic macrocyclic compounds” (POLYPHOR AG, priority 2009, dated 2016)
